Reference: patent EP4289427A1, “DIHYDRO[1,8]NAPHTHYRIDIN-7-ONE AND PYRIDO[3,2-B][1,4]OXAZIN-3-ONE FOR USE IN TREATING CANCER, AND METASTASES IN PARTICULAR” (Anagenesis Biotechnologies, priority 2022, dated 2023)

Tests used:
RD cells = assay: Cytotoxicity assay (CellTiter-Glo 2.0) on RD cells; assay type: cell-based, Human; settings: for IC50: Homo sapiens; for Cytotoxicity: test concentration or dose not given here
Procedure, shortened: (§1)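 Compound-treated cells, incubation time varying by line; CellTiter-Glo 2.0 ATP luminescence; relative IC50.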

4T1 cells = assay: Cytotoxicity assay (CellTiter-Glo 2.0) on 4T1 cells; assay type: cell-based, Mouse; settings: incubation 2 days; for IC50: Mus musculus, 48 h; for Cytotoxicity: test concentration or dose not given here
Procedure, shortened: as §1

MDA-MB-231 cells = assay: Cytotoxicity assay (CellTiter-Glo 2.0) on MDA-MB-231 cells; assay type: cell-based, Human; settings: incubation 3 days; for IC50: Homo sapiens, 72 h; for Cytotoxicity: test concentration or dose not given here
Procedure, shortened: as §1

EoL-1 cells = assay: Cytotoxicity assay (CellTiter-Glo 2.0) on EoL-1 cells; assay type: cell-based, Human; settings: incubation 1 day; for IC50: Homo sapiens, EOL1, 24 h; for Cytotoxicity: test concentration or dose not given here
Procedure, shortened: as §1

HUVECs = assay: Tube formation assay (anti-angiogenic activity); assay type: cell-based, human; settings: incubation 16 to 18 hours; for IC50: Homo sapiens, HUVEC; for Angiogenesis inhibition: test concentration or dose not given here
Procedure, shortened: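 HUVECs plated at 5000 cells/well on reduced growth factor basement membrane matrix, then exposed to compounds for 16 to 18 hours at 37°C. Cells stained with calcein-AM; tube networks imaged by confocal fluorescence microscopy and quantified.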

Row | Compound | Cytotoxicity (RD cells; 2 day-treatment) | Cytotoxicity (RD cells; 4 day-treatment) | IC50 (RD cells; 48 h, 2 day-treatment) [µM] | IC50 (RD cells; 96 h, 4 day-treatment) [µM] | IC50 (4T1 cells) [µM] | Cytotoxicity (4T1 cells) | IC50 (MDA-MB-231 cells) [µM] | Cytotoxicity (MDA-MB-231 cells) | IC50 (EoL-1 cells) [µM] | Cytotoxicity (EoL-1 cells) | IC50 (HUVECs) [µM] | Angiogenesis inhibition (HUVECs)
1 | CSc1cc(Oc2ccnc3c2OCC(=O)N3)ccc1NC(=O)Nc1cc(C(C)(C)C)nn1-c1cccc(CN(C)C)c1 [Compound 041, 1-[5-tert-butyl-2-[3-(dimethylaminomethyl)phenyl]pyrazol-3-yl]-3-[2-methylsulfanyl-4-[(3-oxo-4H-pyrido[3,2-b][1,4]oxazin-8-yl)oxy]phenyl]urea] | +++ (cytotoxicity ≥ 85%) | +++ (cytotoxicity ≥ 85%) | 1 to 5 | 1 to 5 | < 1 | +++ (cytotoxicity ≥ 85%) | 1 to 5 | +++ (cytotoxicity ≥ 85%) | 0.001 to 0.01 | +++ (cytotoxicity ≥ 85%) | < 0.1 | +++ (angiogenesis inhibition ≥ 80%)
2 | CSc1cc(Oc2ccnc3c2CCC(=O)N3)ccc1NC(=O)Nc1cc(C(C)(C)C)nn1-c1ccc(CN2CCOCC2)cc1 [Compound 042, 1-[5-tert-butyl-2-[4-(morpholinomethyl)phenyl]pyrazol-3-yl]-3-[2-methylsulfanyl-4-[(7-oxo-6,8-dihydro-5H-1,8-naphthyridin-4-yl)oxy]phenyl]urea] | ++ (50% ≤ cytotoxicity < 85%) | ++ (50% ≤ cytotoxicity < 85%) | 1 to 5 | 1 to 5 | < 1 | +++ (cytotoxicity ≥ 85%) | 1 to 5 | ++ (50% ≤ cytotoxicity < 85%) | 0.001 to 0.01 | +++ (cytotoxicity ≥ 85%) | < 0.1 | +++ (angiogenesis inhibition ≥ 80%)
3 | CC(C)(C)c1cc(NC(=O)Nc2ccc(Oc3ccnc4c3OCC(=O)N4)cc2C(F)(F)F)n(-c2ccc(CN3CCOCC3)cc2)n1 [Compound 043, 1-[5-tert-butyl-2-[4-(morpholinomethyl)phenyl]pyrazol-3-yl]-3-[4-[(3-oxo-4H-pyrido[3,2-b][1,4]oxazin-8-yl)oxy]-2-(trifluoromethyl)phenyl]urea] | + (20 % ≤ cytotoxicity < 50%) | + (20 % ≤ cytotoxicity < 50%) | ≥ 10 | ≥ 10 | 1 to 5 | +++ (cytotoxicity ≥ 85%) | 5 to 10 | ++ (50% ≤ cytotoxicity < 85%) | 0.01 to 0.1 | ++ (50% ≤ cytotoxicity < 85%) | 0.1 to 0.5 | +++ (angiogenesis inhibition ≥ 80%)
4 | CC(C)(C)c1cc(NC(=O)Nc2ccc(Oc3ccnc4c3OCC(=O)N4)cc2C(F)(F)F)n(-c2cccc(CN3CCOCC3)c2)n1 [Compound 044, 1-[5-tert-butyl-2-[3-(morpholinomethyl)phenyl]pyrazol-3-yl]-3-[4-[(3-oxo-4H-pyrido[3,2-b][1,4]oxazin-8-yl)oxy]-2-(trifluoromethyl)phenyl]urea] | + (20 % ≤ cytotoxicity < 50%) | + (20 % ≤ cytotoxicity < 50%) | ≥ 10 | ≥ 10 | 1 to 5 | +++ (cytotoxicity ≥ 85%) | 5 to 10 | + (20 % ≤ cytotoxicity < 50%) | 0.01 to 0.1 | ++ (50% ≤ cytotoxicity < 85%) | 0.1 to 0.5 | +++ (angiogenesis inhibition ≥ 80%)
5 | CC(C)(C)c1cc(NC(=O)Nc2ccc(Oc3ccnc4c3CCC(=O)N4)cc2C(F)(F)F)n(-c2cccc(CN3CCOCC3)c2)n1 [Compound 045, 1-[5-tert-butyl-2-[3-(morpholinomethyl)phenyl]pyrazol-3-yl]-3-[4-[(7-oxo-6,8-dihydro-5H-1,8-naphthyridin-4-yl)oxy]-2-(trifluoromethyl)phenyl]urea] | + (20 % ≤ cytotoxicity < 50%) | + (20 % ≤ cytotoxicity < 50%) | 5 to 10 | 5 to 10 | < 1 | +++ (cytotoxicity ≥ 85%) | 1 to 5 | ++ (50% ≤ cytotoxicity < 85%) | 0.01 to 0.1 | ++ (50% ≤ cytotoxicity < 85%) | 0.1 to 0.5 | +++ (angiogenesis inhibition ≥ 80%)
6 | CSc1cc(Oc2ccnc3c2CCC(=O)N3)ccc1NC(=O)Nc1cc(C(C)(C)C)nn1-c1ccc(CN(C)C)cc1 [Compound 046, 1-[5-tert-butyl-2-[4-(dimethylaminomethyl)phenyl]pyrazol-3-yl]-3-[2-methylsulfanyl-4-[(7-oxo-6,8-dihydro-5H-1,8-naphthyridin-4-yl)oxy]phenyl]urea] | +++ (cytotoxicity ≥ 85%) | +++ (cytotoxicity ≥ 85%) | 5 to 10 | 1 to 5 | < 1 | +++ (cytotoxicity ≥ 85%) | 1 to 5 | +++ (cytotoxicity ≥ 85%) | < 0.001 | +++ (cytotoxicity ≥ 85%) | < 0.1 | +++ (angiogenesis inhibition ≥ 80%)
7 | CSc1cc(Oc2ccnc3c2CCC(=O)N3)ccc1NC(=O)Nc1cc(C(C)(C)C)nn1-c1cccc(CN2CCOCC2)c1 [Compound 047, 1-[5-tert-butyl-2-[3-(morpholinomethyl)phenyl]pyrazol-3-yl]-3-[2-methylsulfanyl-4-[(7-oxo-6,8-dihydro-5H-1,8-naphthyridin-4-yl)oxy]phenyl]urea] | ++ (50% ≤ cytotoxicity < 85%) | ++ (50% ≤ cytotoxicity < 85%) | 5 to 10 | 1 to 5 | < 1 | +++ (cytotoxicity ≥ 85%) | 1 to 5 | ++ (50% ≤ cytotoxicity < 85%) | 0.001 to 0.01 | +++ (cytotoxicity ≥ 85%) | < 0.1 | +++ (angiogenesis inhibition ≥ 80%)
8 | CN(C)Cc1cccc(-n2nc(C(C)(C)C)cc2NC(=O)Nc2ccc(Oc3ccnc4c3OCC(=O)N4)cc2C(F)(F)F)c1 [Compound 048, 1-[5-tert-butyl-2-[3-(dimethylaminomethyl)phenyl]pyrazol-3-yl]-3-[4-[(3-oxo-4H-pyrido[3,2-b][1,4]oxazin-8-yl)oxy]-2-(trifluoromethyl)phenyl]urea] | ++ (50% ≤ cytotoxicity < 85%) | +++ (cytotoxicity ≥ 85%) | 5 to 10 | 1 to 5 | 1 to 5 | +++ (cytotoxicity ≥ 85%) | 1 to 5 | ++ (50% ≤ cytotoxicity < 85%) | 0.001 to 0.01 | ++ (50% ≤ cytotoxicity < 85%) | 0.1 to 0.5 | +++ (angiogenesis inhibition ≥ 80%)
9 | CN(C)Cc1ccc(-n2nc(C(C)(C)C)cc2NC(=O)Nc2ccc(Oc3ccnc4c3OCC(=O)N4)cc2C(F)(F)F)cc1 [Compound 049, 1-[5-tert-butyl-2-[4-(dimethylaminomethyl)phenyl]pyrazol-3-yl]-3-[4-[(3-oxo-4H-pyrido[3,2-b][1,4]oxazin-8-yl)oxy]-2-(trifluoromethyl)phenyl]urea] | +++ (cytotoxicity ≥ 85%) | +++ (cytotoxicity ≥ 85%) | 5 to 10 | 5 to 10 | 1 to 5 | +++ (cytotoxicity ≥ 85%) | 5 to 10 | +++ (cytotoxicity ≥ 85%) | 0.01 to 0.1 | ++ (50% ≤ cytotoxicity < 85%) | 0.1 to 0.5 | +++ (angiogenesis inhibition ≥ 80%)
10 | CSc1cc(Oc2ccnc3c2CCC(=O)N3)ccc1NC(=O)Nc1cc(C(C)(C)C)nn1-c1cccc(CN(C)C)c1 [Compound 050, 1-[5-tert-butyl-2-[3-(dimethylaminomethyl)phenyl]pyrazol-3-yl]-3-[2-methylsulfanyl-4-[(7-oxo-6,8-dihydro-5H-1,8-naphthyridin-4-yl)oxy]phenyl]urea] | +++ (cytotoxicity ≥ 85%) | +++ (cytotoxicity ≥ 85%) | 1 to 5 | 1 to 5 | < 1 | +++ (cytotoxicity ≥ 85%) | 1 to 5 | +++ (cytotoxicity ≥ 85%) | 0.001 to 0.01 | +++ (cytotoxicity ≥ 85%) | < 0.1 | +++ (angiogenesis inhibition ≥ 80%)
11 | CSc1cc(Oc2ccnc3c2OCC(=O)N3)ccc1NC(=O)Nc1cc(C(C)(C)C)nn1-c1ccc(CCN(C)C)cc1 [Compound 051, 1-[5-tert-butyl-2-[4-[2-(dimethylamino)ethyl]phenyl]pyrazol-3-yl]-3-[2-methylsulfanyl-4-[(3-oxo-4H-pyrido[3,2-b][1,4]oxazin-8-yl)oxy]phenyl]urea] | +++ (cytotoxicity ≥ 85%) | +++ (cytotoxicity ≥ 85%) | 1 to 5 | 1 to 5 | 1 to 5 | +++ (cytotoxicity ≥ 85%) | 1 to 5 | +++ (cytotoxicity ≥ 85%) | 0.001 to 0.01 | +++ (cytotoxicity ≥ 85%) | < 0.1 | +++ (angiogenesis inhibition ≥ 80%)
